One series concerns interferon (α). The experiment in a line: Cytokine Induction in Human Cells: interferon (α) by ELISA. It is filed as cell-based. Conditions: human PBMC, 18 to 24 hours incubation, lowest concentration found to induce interferon. The text has this:
(§1) An in vitro human blood cell system is used to assess cytokine induction. Activity is based on the measurement of interferon and tumor necrosis factor (α) (IFN and TNF, respectively) secreted into culture media as described by Testerman et. al. In “Cytokine Induction by the Immunomodulators Imiquimod and S-27609”, Journal of Leukocyte Biology, 58, 365-372 (September, 1995).
(§2) Whole blood from healthy human donors is collected by venipuncture into EDTA vacutainer tubes. Peripheral blood mononuclear cells (PBMC) are separated from whole blood by density gradient centrifugation using Histopaque®-1077. Blood is diluted 1:1 with Dulbecco's Phosphate Buffered Saline (DPBS) or Hank's Balanced Salts Solution (HBSS). The PBMC layer is collected and washed twice with DPBS or HBSS and resuspended at 4×10^6 cells/mL in RPMI complete. The PBMC suspension is added to 48 well flat bottom sterile tissue culture plates (Costar, Cambridge, Mass. or Becton Dickinson Labware, Lincoln Park, N.J.) containing an equal volume of RPMI complete media containing test compound.
(§3) The compounds are solubilized in dimethyl sulfoxide (DMSO). The DMSO concentration should not exceed a final concentration of 1% for addition to the culture wells. The compounds are generally tested at concentrations ranging from 30-0.014 μM.
(§4) The solution of test compound is added at 60 μM to the first well containing RPMI complete and serial 3 fold dilutions are made in the wells. The PBMC suspension is then added to the wells in an equal volume, bringing the test compound concentrations to the desired range (30-0.014 μM). The final concentration of PBMC suspension is 2×10^6 cells/mL. The plates are covered with sterile plastic lids, mixed gently and then incubated for 18 to 24 hours at 37° C. in a 5% carbon dioxide atmosphere.
(§5) Following incubation the plates are centrifuged for 10 minutes at 1000 rpm (˜200×g) at 4° C. The cell-free culture supernatant is removed with a sterile polypropylene pipet and transferred to sterile polypropylene tubes. Samples are maintained at −30 to −70° C. until analysis. The samples are analyzed for interferon (α) by ELISA and for tumor necrosis factor (α) by ELISA or IGEN Assay
Interferon (α) concentration is determined by ELISA using a Human Multi-Species kit from PBL Biomedical Laboratories, New Brunswick, N.J. Results are expressed in pg/mL.
(§6) The table below lists the lowest concentration found to induce interferon and the lowest concentration found to induce tumor necrosis factor for each compound.
(ELISA stands for enzyme-linked immunosorbent assay.)

Series [1] has as its system tumor necrosis factor (α). The experiment in a line: Cytokine Induction in Human Cells: tumor necrosis factor (α) by ELISA or IGEN assay. It is filed as cell-based. Conditions: human PBMC, 18 to 24 hours incubation, lowest concentration found to induce tumor necrosis factor.
Excerpt: as §1, §2, §3, §4, §5
Tumor necrosis factor (α) (TNF) concentration is determined using ELISA kits available from Biosource International, Camarillo, Calif. Alternately, the TNF concentration can be determined by Origen® M-Series Immunoassay and read on an IGEN M-8 analyzer from IGEN International, Gaithersburg, Md. The immunoassay uses a human TNF capture and detection antibody pair from Biosource International, Camarillo, Calif. Results are expressed in pg/mL.
as §6

We go through four compounds from patent publication US6677347B2, “Sulfonamido ether substituted imidazoquinolines” (3M Innovative Properties Company, priority 2000, dated 2004).

In general, minimal effective concentration refers to the smallest amount tested that counted as effective. The melting point is the temperature, or range, at which the solid turns liquid.

As to `COCCc1nc2c(N)nc3ccccc3c2n1CCOCCN(C)S(C)(=O)=O` [Example 3, N-(2-{2-[4-amino-2-(2-methoxyethyl)-1H-imidazo[4,5-c]quinolin-1-yl]ethoxy}ethyl)-N-methylmethanesulfonamide], the melting point is 145 to 146.5 °C. The minimal effective concentration in the series with interferon (α) is 0.01 µM. Besides, the minimal effective concentration in series [1] stood at 0.12 µM.

For the compound `CCOCc1nc2c(N)nc3ccccc3c2n1CCOCCNS(=O)(=O)C(C)C` [Example 58, N-(2-{2-[4-amino-2-(ethoxymethyl)-1H-imidazo[4,5-c]quinolin-1-yl]ethoxy}ethyl)propane-2-sulfonamide], the melting point is 139 to 142 °C. For the compound `COCCc1nc2c(N)nc3ccccc3c2n1CCOCCN(C)S(=O)(=O)C(C)C` [Example 59, N-(2-{2-[4-amino-2-(2-methoxyethyl)-1H-imidazo[4,5-c]quinolin-1-yl]ethoxy}ethyl)-N-methylpropane-2-sulfonamide], the melting point lay within 129.7 to 130.2 °C. `Cc1nc2c(N)nc3ccccc3c2n1CCOCCN1CCCS1(=O)=O` [Example 60, 1-{2-[2-(1,1-Dioxidoisothiazolidin-2-yl)ethoxy]ethyl}-2-methyl-1H-imidazo[4,5-c]quinolin-4-amine] came in with a melting point of 186 to 187 °C.
